Target: T1, Py235 (reticulocyte binding protein), nucleotide binding domain NBD94 (Plasmodium yoelii, UniProt Q7RPU0)
T1 construct: gene PY01365
Experiment: fluorescence correlation spectroscopy titration

Substance: EDA-ADP ATTO-647N
- Kd: 331 ± 1.8 µM

Substance: EDA-ATP ATTO-647N
- Kd: 228 ± 2.3 µM

— paper PMC2818847 (PLoS ONE, 2010)
